Where two headings read alike, the source gives them in different places.
Columns and labels:
PBMC from healthy donors = assay: IL-17A production from PBMC of healthy donors; type: cell-based; conditions: Homo sapiens, typically observed
Description: (§1) Frozen PBMCs of healthy and rheumatoid arthritis patients were obtained from SeraCare Life Sciences (Gaithersburg, MD). […] 3 days later, supernatants were collected and analyzed by MSD multi-spot assay or ELISA for IL-17A, IL-22 and IL-13 production.

mouse splenic γδ T cells = assay: Mouse γδ+ T cell in vitro activation; type: cell-based; conditions: for IC50: Mus musculus, T-cell, IL-1β/IL-23 plus anti-IFNγ, 65 hours, ELISA
Description: (§2) The following antibodies (anti-mouse or anti-human) were purchased from BD Biosciences (San Diego, CA) or eBioscience (San Diego, CA): anti-CD3-FITC (mouse 17A2 and human SK7), anti-CD4-allophycocyanin (APC), anti-CD4-PerCp, anti-CD4-FITC, anti-CD4-PE (mouse GK1.5 and human SK3), anti-CD44-PerCp (mouse IM7), anti-γδ TCR-FITC, anti-γδ TCR-PE (mouse GL3 and human B1), anti-CD62L-FITC (mouse MEL-14 and human SK11), anti-CD45RO-APC (human UCHL1), anti-CCR6-PE (human 11A9), anti-CD45-PerCp (mouse 30-F11). Human or mouse anti-IFNγ (mouse XMG1.2 and human 4S.B3), anti-TNFα (mouse MP6-XT22 and human MAB11), anti-IL-17A (mouse eBio17B7 and human eBio64DEC17), anti-IL-22 (mouse 1H8PWSR and human 22URTI), and anti-Foxp3 (mouse FJK-16s and human 36A/E7), all PE or APC conjugated, were purchased from eBioscience (San Diego, CA). Human and mouse APC conjugated CD1d tetramers pre-loaded with alpha-GalCer and negative controls were obtained from ProImmune. For intracellular staining cells were stimulated for 4 hours at 37 °C with PMA and ionomycin (0.5 μg/ml each) in the presence of brefeldin A and monensin or with leukocyte activation cocktail (BD Bioscience, San Diego, CA). Cells were stained with fluorescence-labeled antibodies for surface marker, then fixed/permeabilized (eBioscience) and stained with antibodies for intracellular cytokines. For Foxp3 staining cells were fixed/permeabilized using transcription factor buffer set (eBioscience). The data were acquired on a FACS Calibur (BD Bioscience) and analyzed using FlowJo software (Tree Star, San Carlos, CA).
Mouse γδ^+ T cells were isolated from splenocytes of C57BL/6N mice using TCR γδ^+ T Cell Isolation Kit (Miltenyl Biotec, Auburn, CA), following the manufacturer’s instructions. Cells were resuspended in culture medium and seeded in 96-well plates at 5 × 10^4 per well. […] Cells were incubated at 37 °C and 5% CO2 for 65 hours before sample collection. Supernatant samples were collected for measurement of IL-17A, IL-17F and IL-22 using R&D ELISA kits, according to manufacturer’s instructions. Cytokine-producing cells were analyzed through intracellular staining and flow cytometry analysis.

RORβ = target: T1, RORβ (Homo sapiens, UniProt Q92753); assay: 1-hybrid reporter assay in HEK293T cells (GAL4-RORβ); type: cell-based; conditions: HEK-293T
T1 construct: NP_008845, aa 201–459; expressed in transfected cells; host or cells: HEK293T
Method: The reporter assay was performed by transient co-transfection of HEK293T cells with pCMV-BD (Stratagene #211342) containing the GAL4 DNA-binding domain fused with full-length human RORγt (Genbank accession no. NP_001001523, aa 1–497), pFR-Luc reporter and pRL-CMV reporter (Promega #E2261) plus Carrier DNA (Clontech # 630440) using PEI solution (Sigma Aldrich cat# 40872-7) in a 96-well plate. […] Medium was removed and cells were lysed with Passive Lysis Buffer (Promega). Firefly luciferase buffer was then added and firefly luciferase luminescence was read on BMG LUMIstar OPTIMA luminescence plate reader. One second later, renilla luciferase buffer was then added and renilla luciferase luminescence was read to measure cell viability. For RORα and RORβ activity, similar assays were performed except cells were transfected with pCMV-BD-RORα (Genbank accession no. NP_599022, aa 305–556) or pCMV-BD-RORβ (Genbank accession no. NP_008845, aa 201–459).

[1] = system: naïve CD4+ T cells under Th17-polarizing conditions; assay: In vitro mouse Th17 differentiation; type: cell-based; conditions: for IC50: Mus musculus, CD4+ T
Description: as §2
Naïve CD4^+ T cells were isolated from splenocytes of C57BL/6N mice using a naïve CD4^+ T cell isolation kit II (Miltenyl Biotec, Auburn, CA), following the manufacturer’s instructions. Cells were resuspended in culture medium (RPMI-1640 medium supplemented with 10% fetal bovine serum, 50 IU/ml penicillin, 50 μg/ml streptomycin, 2 mM glutamine, and 55 μM β-mercaptoethanol), and were added to 96-well plates at 2 × 10^5 per well. […] Cells were incubated for 1 hour, after which Th17 cell differentiation medium was added with final concentrations of 1 μg/ml anti-CD3, 5 μg/mL anti-CD28 (BD Pharmingen, San Diego, CA), 10 μg/ml anti-IL-4, 10 μg/ml anti-IFNγ, 10 ng/mL IL-23, 10 ng/mL IL-6, and 10 ng/ml TGFβ (R&D Systems, Minneapolis, MN). Cells were cultured at 37 °C and 5% CO2 for 3 days. Supernatants were collected and the accumulated cytokines in culture were measured by ELISA kits (R&D Systems, Minneapolis, MN) following manufacturers’ instructions. Cells were harvested for staining and flow cytometry analysis.

PBMC from RA patients = assay: IL-17A/IL-22 production from PBMC of rheumatoid arthritis patients; type: cell-based, human; conditions: anti-CD3/anti-CD28 plus IL-1β and IL-23, 3 days
Description: as §1

T1 sequence (Q92753 212-470): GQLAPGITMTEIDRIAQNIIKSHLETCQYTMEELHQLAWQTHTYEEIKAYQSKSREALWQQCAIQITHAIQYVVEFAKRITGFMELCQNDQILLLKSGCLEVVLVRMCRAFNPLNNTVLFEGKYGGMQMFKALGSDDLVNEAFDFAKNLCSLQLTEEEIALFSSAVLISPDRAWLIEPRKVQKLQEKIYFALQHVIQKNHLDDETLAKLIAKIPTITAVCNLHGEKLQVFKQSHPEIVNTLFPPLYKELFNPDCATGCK

SMILES: COc1nc2ccc([C@@](O)(c3ccc(C)nc3C)c3cnnn3C)cc2c(Cl)c1Cc1ccc(C(F)(F)F)cc1 [JNJ-54271074]
- IC50 (PBMC from healthy donors): 3 ± 0.9 nM
- decrease of the percentage of IL-17A- and IL-17A/IL-22-producing cells (mouse splenic γδ T cells; 0.1 μM): about 50%
- IC50 (mouse splenic γδ T cells; read-out: IC50, IL-17A production): 77 nM
- IC50 (mouse splenic γδ T cells; read-out: IC50, IL-17F production): 54 nM
- IC50 (mouse splenic γδ T cells; read-out: IC50, IL-22 production): 83 nM
- IC50 (RORβ): > 10000 nM
- IL-17A-producing cells ([1]; 1 μM, flow cytometry): almost completely abolished
- IC50 ([1]; Th17-polarizing condition, supernatant, read-out: IC50, IL-17A production): 17 nM
- IC50 ([1]; flow cytometry, read-out: IC50, total IL-17A-producing cells): 21 nM
- TNFα production ([1]; Th17-polarizing condition, supernatant): did not inhibit
- IC50 (PBMC from RA patients; Homo sapiens, PBMC, 72 h, read-out: IC50, IL-17A production from PBMC from RA subjects): 5 ± 1.2 nM
- efficacy, inhibition of IL-17A production (PBMC from RA patients; RA PBMC): 88%
- efficacy, inhibition of IL-22 production (PBMC from RA patients; RA PBMC): 44%

Reference: paper PMC5131364, “Pharmacologic modulation of RORγt translates to efficacy in preclinical and translational models of psoriasis and inflammatory arthritis” (Scientific Reports, 2016)
